Laboratory results as given in article PMC4345494, “Cheaper faster drug development validated by the repositioning of drugs against neglected tropical diseases” (Journal of the Royal Society Interface, 2015).

Biological target: P. vivax DHFR (dihydrofolate reductase) (Plasmodium vivax, UniProt O02604)
Assay: DHFR enzyme inhibition assay (supported by growth assay of yeast expressing PvDHFR)
Format: biochemical

P. vivax DHFR (dihydrofolate reductase), sequence (O02604 1-237): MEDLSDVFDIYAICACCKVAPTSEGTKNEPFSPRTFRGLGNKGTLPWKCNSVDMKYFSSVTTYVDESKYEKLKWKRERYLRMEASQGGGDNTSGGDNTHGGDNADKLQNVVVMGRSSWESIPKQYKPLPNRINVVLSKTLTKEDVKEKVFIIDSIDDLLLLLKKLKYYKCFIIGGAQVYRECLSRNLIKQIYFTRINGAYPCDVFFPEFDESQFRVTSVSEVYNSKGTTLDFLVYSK

With `CO[C@@H]1[C@H](OC(=O)NC(=O)CCl)CC[C@]2(CO2)[C@H]1[C@@]1(C)O[C@@H]1CC=C(C)C` [TNP-470] the IC50 was 0.16 µM.
